In PubChem BioAssay (NCI):
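Five concentrations, 48 hours, 96-well plates. TGI: total growth inhibition.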

Key:
Test in all cases: NCI-60 cell line screen, 48 h
[1] = test system: UACC-257 melanoma
[2] = test system: SF-295 CNS
[3] = test system: RXF 393 renal
[4] = test system: U251 CNS
[5] = test system: HT29 colon
[6] = test system: NCI-H226 lung
[7] = test system: HL-60(TB) leukemia
[8] = test system: HOP-18 NSCLC
[9] = test system: KM20L2 colon
[10] = test system: LOX IMVI melanoma
[11] = test system: NCI-H460 lung
[12] = test system: SF-268 CNS
[13] = test system: IGROV1 ovarian
[14] = test system: CAKI-1 renal
[15] = test system: OVCAR-5 ovarian
[16] = test system: SF-539 CNS
[17] = test system: HOP-62 NSCLC
[18] = test system: OVCAR-3 ovarian
[19] = test system: HOP-92 NSCLC
[20] = test system: UACC-62 melanoma

SMILES	TGI [1]	TGI [2]	TGI [3]	TGI [4]	TGI [5]	TGI [6]	TGI [7]	TGI [8]	TGI [9]	TGI [10]	TGI [11]	TGI [12]	TGI [13]	TGI [14]	TGI [15]	TGI [16]	TGI [17]	TGI [18]	TGI [19]	TGI [20]
CC1=CC[C@H](C)C(C)(C)C1/C=C/C(C)=C/CC[C@@]1(CO)[C@H](CCCO)/C(=C(/C)C=O)CC[C@]1(C)O (stereo partly drawn)	28.8 µM	13.9 µM	28.1 µM	12.9 µM	12.1 µM	14.4 µM	7.79 µM	28.9 µM	8.23 µM	15.7 µM	13.5 µM	25.1 µM	24.7 µM	10.5 µM	38.2 µM	20.8 µM				
COc1cccc(NC(=O)N/C(=C/c2ccc(N(CCC#N)CCC#N)cc2)NC(=O)c2cc([N+](=O)[O-])ccc2Cl)c1		> 100 µM	> 100 µM	> 100 µM		> 100 µM		> 100 µM	> 100 µM	> 100 µM		> 100 µM	> 100 µM	> 100 µM	> 100 µM	> 100 µM	> 100 µM	> 100 µM	> 100 µM	> 100 µM
Cc1cc(S(N)(=O)=O)c(S/C(=N\Nc2ccc([N+](=O)[O-])cc2)c2ccc(Cl)cc2)cc1Cl	8.7 µM	5.46 µM	3.49 µM	5.41 µM	4.36 µM	6.57 µM	> 100 µM				5.3 µM	6.58 µM	12.8 µM	14.9 µM		4.19 µM	> 100 µM	3.85 µM	5.4 µM	20.2 µM
